In PubChem BioAssay AID2060623 (Molecular Pharmacology Branch, DTP, NCI, 2025):
Where “and” joins values, the source holds several entries; their conditions need not be identical. Equal values may be shown once.

Tested on: 227483-062-R1-J1-PDC complex spheroids with HUVEC/MSC, viability
Test: Anticancer human tumor 227483-062-R1-J1-PDC patient-derived pancreatic carcinoma cell line growth inhibition [CLK]
Conditions: for viability, T/C: stronger effect = lower value
Method in brief: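 Multi-cell-type spheroids combined patient-derived tumor cells with HUVEC endothelial cells and human mesenchymal stem cells. Paired agents were dosed in half-log steps down from about clinical Cmax, or from 10 microM where Cmax was unknown.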

[1] = curve of first compound, second compound 0.0316 µM
[2] = curve of first compound, second compound 0.1 µM
[3] = curve of first compound, second compound 0.316 µM
[4] = curve of first compound, second compound 1 µM
[5] = curve of first compound, second compound 3.16 µM
[6] = curve of first compound, second compound 10 µM
[7] = second compound 0.0316 µM, first compound 0.0316 µM
[8] = second compound 0.0316 µM, first compound 0.1 µM
[9] = second compound 0.1 µM, first compound 0.0316 µM
[10] = second compound 0.1 µM, first compound 0.1 µM
[11] = second compound 0.316 µM, first compound 0.0316 µM
[12] = second compound 0.316 µM, first compound 0.1 µM
[13] = second compound 1 µM, first compound 0.0316 µM
[14] = second compound 1 µM, first compound 0.1 µM
[15] = second compound 3.16 µM, first compound 0.0316 µM
[16] = second compound 3.16 µM, first compound 0.1 µM
[17] = second compound 10 µM, first compound 0.0316 µM
[18] = second compound 10 µM, first compound 0.1 µM
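Further: spheroids exposed to compounds for seven days before readout.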
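Wherever viability, T/C is given: percent of DMSO vehicle control luminescence as 100% viability.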

## Nc1ccn(C2OC(CO)C(O)C2(F)F)c(=O)n1 (configuration not stated) + CN1CCN(c2cc(C(=O)Nc3cc4cc(-c5cnn(C)c5)ccc4cn3)ccn2)CC1
[1]
  IC50: 72.5 nM
[2]
  IC50: < 31.6 nM
[3]
  IC50: < 31.6 nM
[4]
  IC50: < 31.6 nM
[5]
  IC50: < 31.6 nM
[6]
  IC50: < 31.6 nM
[7]
  viability, T/C: 76%
[8]
  viability, T/C: 39%
Second compound 0.0316 µM, first compound 0.316 µM
  viability, T/C: 32.1%
Second compound 0.0316 µM, first compound 1 µM
  viability, T/C: 35.6%
Second compound 0.0316 µM, first compound 3.16 µM
  viability, T/C: 27.6%
Second compound 0.0316 µM, first compound 10 µM
  viability, T/C: 24.1%
[9]
  viability, T/C: 36.7%
[10]
  viability, T/C: 25.1%
Second compound 0.1 µM, first compound 0.316 µM
  viability, T/C: 24.1%
Second compound 0.1 µM, first compound 1 µM
  viability, T/C: 21%
Second compound 0.1 µM, first compound 3.16 µM
  viability, T/C: 22.5%
Second compound 0.1 µM, first compound 10 µM
  viability, T/C: 15%
[11]
  viability, T/C: 4.9%
[12]
  viability, T/C: 3.69%
Second compound 0.316 µM, first compound 0.316 µM
  viability, T/C: 3.08%
Second compound 0.316 µM, first compound 1 µM
  viability, T/C: 2.47%
Second compound 0.316 µM, first compound 3.16 µM
  viability, T/C: 2.75%
Second compound 0.316 µM, first compound 10 µM
  viability, T/C: 1.97%
[13]
  viability, T/C: 1.05%
[14]
  viability, T/C: 1.34%
Second compound 1 µM, first compound 0.316 µM
  viability, T/C: 2.72%
Second compound 1 µM, first compound 1 µM
  viability, T/C: 2.08%
Second compound 1 µM, first compound 3.16 µM
  viability, T/C: 1.09%
Second compound 1 µM, first compound 10 µM
  viability, T/C: 1.14%
[15]
  viability, T/C: 2.12%
[16]
  viability, T/C: 2.2%
Second compound 3.16 µM, first compound 0.316 µM
  viability, T/C: 3.37%
Second compound 3.16 µM, first compound 1 µM
  viability, T/C: 1.88%
Second compound 3.16 µM, first compound 3.16 µM
  viability, T/C: 1.71%
Second compound 3.16 µM, first compound 10 µM
  viability, T/C: 1.79%
[17]
  viability, T/C: 0.96%
[18]
  viability, T/C: 0.85%
Second compound 10 µM, first compound 0.316 µM
  viability, T/C: 1.06%
Second compound 10 µM, first compound 1 µM
  viability, T/C: 1.19%
Second compound 10 µM, first compound 3.16 µM
  viability, T/C: 0.9%
Second compound 10 µM, first compound 10 µM
  viability, T/C: 0.79%

## Nc1ccn(C2OC(CO)C(O)C2(F)F)c(=O)n1 (configuration not stated)
Compound 0.0316 µM
  viability, T/C: 83.5% and 62.6%
Compound 0.1 µM
  viability, T/C: 43.6% and 29.8%
Compound 0.316 µM
  viability, T/C: 33.7% and 28.5%
Compound 1 µM
  viability, T/C: 37.7% and 30.3%
Compound 3.16 µM
  viability, T/C: 35.4% and 25.7%
Compound 10 µM
  viability, T/C: 23.9% and 20.4%
Curve of compound
  IC50: 83.9 nM and 49.5 nM

## Cn1ncnc1[C@H]1c2n[nH]c(=O)c3cc(F)cc(c23)N[C@@H]1c1ccc(F)cc1 + CNC(=O)c1ccc(Nc2nc(OC3CCCC3)c3c(-c4ccc5nc(C)oc5c4)c[nH]c3n2)c(OC)c1
[1]
  IC50: > 100 nM
[2]
  IC50: > 100 nM
[3]
  IC50: > 100 nM
[4]
  IC50: > 100 nM
[5]
  IC50: < 0.316 nM
[6]
  IC50: < 0.316 nM
Second compound 0.0316 µM, first compound 0.000316 µM
  viability, T/C: 87.5%
Second compound 0.0316 µM, first compound 0.001 µM
  viability, T/C: 111%
Second compound 0.0316 µM, first compound 0.00316 µM
  viability, T/C: 118%
Second compound 0.0316 µM, first compound 0.01 µM
  viability, T/C: 100%
[7]
  viability, T/C: 89.1%
[8]
  viability, T/C: 97.1%
Second compound 0.1 µM, first compound 0.000316 µM
  viability, T/C: 111%
Second compound 0.1 µM, first compound 0.001 µM
  viability, T/C: 120%
Second compound 0.1 µM, first compound 0.00316 µM
  viability, T/C: 106%
Second compound 0.1 µM, first compound 0.01 µM
  viability, T/C: 97.4%
[9]
  viability, T/C: 97%
[10]
  viability, T/C: 109%
Second compound 0.316 µM, first compound 0.000316 µM
  viability, T/C: 105%
Second compound 0.316 µM, first compound 0.001 µM
  viability, T/C: 84.2%
Second compound 0.316 µM, first compound 0.00316 µM
  viability, T/C: 78.5%
Second compound 0.316 µM, first compound 0.01 µM
  viability, T/C: 94.4%
[11]
  viability, T/C: 94.4%
[12]
  viability, T/C: 70.4%
Second compound 1 µM, first compound 0.000316 µM
  viability, T/C: 69%
Second compound 1 µM, first compound 0.001 µM
  viability, T/C: 59.7%
Second compound 1 µM, first compound 0.00316 µM
  viability, T/C: 59.8%
Second compound 1 µM, first compound 0.01 µM
  viability, T/C: 67.4%
[13]
  viability, T/C: 71.9%
[14]
  viability, T/C: 58%
Second compound 3.16 µM, first compound 0.000316 µM
  viability, T/C: 40.7%
Second compound 3.16 µM, first compound 0.001 µM
  viability, T/C: 44.9%
Second compound 3.16 µM, first compound 0.00316 µM
  viability, T/C: 51.2%
Second compound 3.16 µM, first compound 0.01 µM
  viability, T/C: 48.5%
[15]
  viability, T/C: 49.4%
[16]
  viability, T/C: 41.3%
Second compound 10 µM, first compound 0.000316 µM
  viability, T/C: 40.5%
Second compound 10 µM, first compound 0.001 µM
  viability, T/C: 39.3%
Second compound 10 µM, first compound 0.00316 µM
  viability, T/C: 36.5%
Second compound 10 µM, first compound 0.01 µM
  viability, T/C: 34.2%
[17]
  viability, T/C: 41%
[18]
  viability, T/C: 29.3%

## CCCS(=O)(=O)Nc1ccc(F)c(C(=O)c2c[nH]c3ncc(-c4ccc(Cl)cc4)cc23)c1F
Compound 0.0316 µM
  viability, T/C: 101% and 92.4%
Compound 0.1 µM
  viability, T/C: 128% and 96.7%
Compound 0.316 µM
  viability, T/C: 106% and 92.3%
Compound 1 µM
  viability, T/C: 125% and 99%
Compound 3.16 µM
  viability, T/C: 129% and 98.8%
Compound 10 µM
  viability, T/C: 107% and 80.7%
Curve of compound
  IC50: > 10000 nM

## NC(=O)C(=Cn1cnc(-c2cc(C(F)(F)F)cc(C(F)(F)F)c2)n1)c1cncnc1 + CNC(=O)c1ccc(Nc2nc(OC3CCCC3)c3c(-c4ccc5nc(C)oc5c4)c[nH]c3n2)c(OC)c1
[1]
  IC50: 379 nM
[2]
  IC50: 332 nM
[3]
  IC50: 192 nM
[4]
  IC50: 31.8 nM
[5]
  IC50: < 9.49 nM
[6]
  IC50: < 9.49 nM
Second compound 0.0316 µM, first compound 0.00949 µM
  viability, T/C: 73.6%
Second compound 0.0316 µM, first compound 0.03 µM
  viability, T/C: 81.8%
Second compound 0.0316 µM, first compound 0.0949 µM
  viability, T/C: 73.2%
Second compound 0.0316 µM, first compound 0.3 µM
  viability, T/C: 53.4%
Second compound 0.0316 µM, first compound 0.949 µM
  viability, T/C: 29.8%
Second compound 0.0316 µM, first compound 3 µM
  viability, T/C: 9.82%
Second compound 0.1 µM, first compound 0.00949 µM
  viability, T/C: 86.3%
Second compound 0.1 µM, first compound 0.03 µM
  viability, T/C: 77.2%
Second compound 0.1 µM, first compound 0.0949 µM
  viability, T/C: 62.4%
Second compound 0.1 µM, first compound 0.3 µM
  viability, T/C: 60.7%
Second compound 0.1 µM, first compound 0.949 µM
  viability, T/C: 24.6%
Second compound 0.1 µM, first compound 3 µM
  viability, T/C: 5.03%
Second compound 0.316 µM, first compound 0.00949 µM
  viability, T/C: 61.4%
Second compound 0.316 µM, first compound 0.03 µM
  viability, T/C: 80.7%
Second compound 0.316 µM, first compound 0.0949 µM
  viability, T/C: 61.2%
Second compound 0.316 µM, first compound 0.3 µM
  viability, T/C: 41%
Second compound 0.316 µM, first compound 0.949 µM
  viability, T/C: 14.7%
Second compound 0.316 µM, first compound 3 µM
  viability, T/C: 2.56%
Second compound 1 µM, first compound 0.00949 µM
  viability, T/C: 46.4%
Second compound 1 µM, first compound 0.03 µM
  viability, T/C: 56.3%
Second compound 1 µM, first compound 0.0949 µM
  viability, T/C: 43.4%
Second compound 1 µM, first compound 0.3 µM
  viability, T/C: 25.6%
Second compound 1 µM, first compound 0.949 µM
  viability, T/C: 6.77%
Second compound 1 µM, first compound 3 µM
  viability, T/C: 2%
Second compound 3.16 µM, first compound 0.00949 µM
  viability, T/C: 43%
Second compound 3.16 µM, first compound 0.03 µM
  viability, T/C: 35.8%
Second compound 3.16 µM, first compound 0.0949 µM
  viability, T/C: 26.9%
Second compound 3.16 µM, first compound 0.3 µM
  viability, T/C: 11.7%
Second compound 3.16 µM, first compound 0.949 µM
  viability, T/C: 2.83%
Second compound 3.16 µM, first compound 3 µM
  viability, T/C: 2.08%
Second compound 10 µM, first compound 0.00949 µM
  viability, T/C: 40.6%
Second compound 10 µM, first compound 0.03 µM
  viability, T/C: 37.3%
Second compound 10 µM, first compound 0.0949 µM
  viability, T/C: 22%
Second compound 10 µM, first compound 0.3 µM
  viability, T/C: 7.23%
Second compound 10 µM, first compound 0.949 µM
  viability, T/C: 2.36%
Second compound 10 µM, first compound 3 µM
  viability, T/C: 1.41%

## CC(Nc1ccc2c(c1)OCCn1cc(N3C(=O)OCC3C(F)F)nc1-2)C(N)=O (configuration not stated)
Compound 0.0316 µM
  viability, T/C: 89.1% and 95.7%
Compound 0.1 µM
  viability, T/C: 104% and 89.6%
Compound 0.316 µM
  viability, T/C: 82.3% and 76.5%
Compound 1 µM
  viability, T/C: 82.4% and 85.9%
Compound 3.16 µM
  viability, T/C: 69.8% and 72.3%
Compound 10 µM
  viability, T/C: 82.9% and 69.1%
Curve of compound
  IC50: > 10000 nM
